According to patent publication US9987379B2, “Molecular probes for imaging of myelin” (Case Western Reserve University, priority 2008, dated 2018):
“Also recorded” adds a separate entry of the source.

Columns and labels:
[1] = tested on: myelin in corpus callosum; test: In vitro CMC tissue staining of mouse brain sections (wild-type and Plp-Akt-DD); assay type: binding
Experimental: Free floating sections were incubated in 1% H2O2/Triton-100 for 10 min, then incubated in a solution of test compounds (100 μM) in 1% DMSO/PBS for 30 min at room temperature. The sections were washed three times with PBS before cover-slipping with fluorescence mounting medium (Vectashield, Vector laboratories). […] The fluorescent nature of these coumarin derivatives allows for staining of mouse brain tissue sections in a way similar to other conventional myelin stains. The tissue staining represents a direct approach to evaluate the binding specificity of the test compounds for myelin sheaths. The myelinated corpus callosum region was then examined by fluorescent microscopy. […] For correlation, the MBP immunostaining was also conducted in adjacent sections (FIG. 10E).

[2] = tested on: myelin sheaths of the corpus callosum and cerebellum; test: In situ CMC staining of myelin after i.v. injection; assay type: in vivo, mouse; details: 25 mg/kg tail vein, 1 hr post injection, wild-type and Plp-Akt-DD mice
Experimental: In this experiment, 25 mg/kg of CMC was administered through i.v. injection in the tail vein of 2-month old wild-type mice and Plp-Akt-DD mice Animals were sacrificed at 1 hr after injection through heart puncture. The brains were removed and fixed in 4% PFA. The brains were then sectioned and fluorescent images were directly acquired on a Zeiss Axiovert 200M inverted microscope (2.5× objective) with a AxioCam digital camera (Carl Zeiss Microlmagibg, Inc, Thornwood, N.Y.).
Following our in vitro studies, we investigated the ability of CMC to monitor myelin contents ex vivo in the mouse brain. A dose of 0.5 mg CMC (25 mg/kg) was injected via the tail vein into wild-type mice and Plp-Akt-DD mice. One hr postinjection, mice were perfused and brains were removed and sectioned as described above. CMC staining of myelin was then directly examined under fluorescent microscopy.

Log P of CMC = assay type: physicochemical; details: method not stated
[3] = Octanol-water partition coefficient measurement; assay type: physicochemical
Description: The partition coefficient (PC) is an important parameter of brain permeability. PC values ranging 1.0˜3.5 often show good initial brain entry following i.v. injection (Wu, C.; Pike, V. W.; Wang, Y. Amyloid imaging: from benchtop to bedside. Curr Top Dev Biol 2005, 70, 171-213; Levin, V. A. Relationship of octanol/water partition coefficient and molecular weight to rat brain capillary permeability. J Med Chem 1980, 23, 682-684; Dishino, D. D.; Welch, M. J.; Kilbourn, M. R.; Raichle, M. E. Relationship between lipophilicity and brain extraction of C-11-labeled radiopharmaceuticals. J Nucl Med 1983, 24, 1030-1038. For this reason, we radioiodinated Compound 9 and quantitatively determined the lipophilicity of [^125I]9. Based on the conventional octanol-water partition measurement, the log Poct of [^125I]9 was determined as 2.5±0.1, which falls in the range for optimal brain entry.
Partition coefficients (PC) were measured by mixing the radioligands with 3 g (3.65 mL) 1-octanol and 3 g (3.0 mL) buffer (pH 7.40, 0.1 M phosphate) in a test tube. The test tube was vortexed for 3 mM at room temperature and then centrifuged (3500 rpm, 5 mM) 1 ml of samples from the 1-octanol and buffer layers were assayed for radioactivity content in a well γcounter. The partition coefficient was determined by calculating the ratio of cpm/g of 1-octanol to that of the buffer. […]

[4] = tested on: myelinated corpus callosum and cerebellum; test: In vitro autoradiography of mouse brain sections; assay type: binding; details: sagittal mouse brain sections, 1 hr incubation
Experimental: To further evaluate the binding specificity of [^125I]9 to myelin sheaths in the brain, in vitro autoradiography was carried out in mice.
Mouse brain sections were incubated in [^125I]9 (20% Ethanol, 4,380,000 cpm/16 ml) for 1 hr. The slides were quickly washed with PBS buffer (10 mM, pH 7.0) 3 times, saturated Li2CO3 in 40% ethanol (2×3 mM), 40% ethanol (2 mM) and H2O (30 sec). After drying by air, the slides were put in a cassette and exposed to film for 44 hrs to obtain images.

[5] = Brain uptake / permeability across the blood-brain barrier in mice; assay type: in vivo, mouse
Experimental: Encouraged by the aforementioned studies, we further evaluated the permeability of [^125I]9 across the blood brain barrier. Following bolus tail vein injection of [^125I]9 (0.2 ml, 0.185 MBq), the radioactivity concentration of [^125I]9 in the brain was determined at 2, 30, and 60 min post injection. […] The initial brain entry was 2.29±0.66% ID/g at 2 min post injection. At 30 min post injection, the brain radioactivity concentration reached its peak level (2.65±0.27% ID/g). […] Retention of [^125I]9 at later time points was likely due to binding to myelin membranes as indicated by aforementioned in vitro and in situ staining studies.
While under anesthesia, 0.1 mL of a saline solution (consisting of saline (2 mL, 9 mg/mL), propylene glycol (2 mL), ethanol (0.7 mL) and HCl (0.3 mL, […]))^25 containing 5 μCi of radioactive tracer, was injected into the tail veins of mice (Swiss-Webster, 2 month old, 2 mice per group). The mice were sacrificed by heart puncture at 2 mM, 30 mM, 60 min and 120 mM post injection under anesthesia. Brains were rapidly removed and weighed, and the brain uptake was expressed as percentage of injection dose per gram organ (% ID/g), which was calculated by a ratio of per gram tissue counts to counts of 1% of the initial dose (100 times diluted aliquots of the injected radioligand) measured at the same time.

[6] = Stability of [125I]9 monitored by HPLC; assay type: physicochemical
Description: The radiochemical identity of [^125I]9 was verified by co-injection with cold standard Compound 9. Following HPLC purification, [^125I]9 was obtained in 70% radiochemical yield with a radiochemical purity of >98% and a specific activity of 80 TBq/mmol As monitored by HPLC, [^125I]9 was found stable to be kept at room temperature for up to 8 hrs and in the refrigerator for up to 2 months.

logP (Log P of CMC) | Compound | staining contrast among the coumarin derivatives screened ([1]; 100 uM, mouse brain sections) | in vitro staining of myelin ([1]; 100 uM, wild-type mouse brain sections) | fluorescent intensity in Plp-Akt-DD mouse brain relative to wild-type mouse brain ([1]; corpus callosum, hypermyelinated Plp-Akt-DD vs wild-type) | brain entry and in situ labeling of myelin [2] | log Poct [3] | autoradiographic labeling of brain sections [4] | brain radioactivity concentration ([5]; 2 min post tail vein injection) | brain radioactivity concentration ([5]; 30 min post tail vein injection) | brain radioactivity concentration ([5]; 60 min post tail vein injection) | brain radioactivity concentration ([5]; 120 min post tail vein injection) | time found stable in the refrigerator ([6]; in the refrigerator) | time found stable at room temperature ([6]; room temperature)
2.68 | Nc1ccc(-c2cc3ccccc3oc2=O)cc1 [CMC, 3-(4-aminophenyl)-2H-chromen-2-one] | highest contrast | selectively stained intact myelin tracks | 1.27 fold | highly permeable across the BBB and selectively localizes in myelinated regions; also recorded: entered the brain and selectively labeled myelin sheaths of the corpus callosum and cerebellum | – | – | – | – | – | – | – | –
– | Nc1ccc(C=Cc2ccc([125I])cc2)cc1 [[^125I]9, 4-[2-(4-[^125I]Iodo-phenyl)-vinyl]-phenylamine] | – | – | – | – | 2.5±0.1 | distinct labeling of myelinated regions | 2.29±0.66 % ID/g | 2.65±0.27 % ID/g | 2.05 ± 0.13 % ID/g | 1.12±0.23 % ID/g | up to 2 months | up to 8 hrs
